US4425432A (priority 1981, dated 1984)
Like-named read-outs stand apart in the source and are kept apart here.

Legend:
Marburg strain = assay: microbe, parasite or virus in culture; format: cell-based, Butyribacterium methylotrophicum
Clostridium pasteurianum = assay: microbe, parasite or virus in culture; format: cell-based
[1] = [Butyribacterium] methylotrophicum, 192 h, read-out: % Inhibition of growth, Marburg strain
[2] = Clostridium pasteurianum, 1 h, read-out: % Inhibition of growth, Clostridium pasteurianum

| Compound | inhibition at 100 µg/mL (Marburg strain; [1]) | inhibition at 100 µg/mL (Clostridium pasteurianum; [2]) | sensitivity of the Marburg strain (B. methylotrophicum) to antibiotics and inhibitors, in words (Marburg strain) | other results |
| --- | --- | --- | --- | --- |
| O=C(N[C@H](CO)[C@H](O)c1ccc([N+](=O)[O-])cc1)C(Cl)Cl [Chloramphenicol] | 100% | 100% | – | – |
| O=O [Oxygen] | – | – | effective inhibitor of growth | % Inhibition of growth, Marburg strain (Marburg strain): 100%; % Inhibition of growth, Clostridium pasteurianum (Clostridium pasteurianum): 100% |
| CC1(C)S[C@@H]2[C@H](NC(=O)Cc3ccccc3)C(=O)N2[C@H]1C(=O)O [Penicillin] | 100% | 100% | – | – |
| [N-]=[N+]=[N-] [Sodium azide] | – | – | noticeably more tolerant | inhibition at 50 µg/mL (Marburg strain; [1]): 0%; inhibition at 250 µg/mL (Marburg strain; [1]): 0%; inhibition at 50 µg/mL (Clostridium pasteurianum; [2]): 100%; inhibition at 250 µg/mL (Clostridium pasteurianum; [2]): 93% |
| [Cl-].[Na+] [Sodium chloride] | – | – | noticeably more tolerant | % Inhibition of growth, Marburg strain (Marburg strain; 2%): 0%; % Inhibition of growth, Clostridium pasteurianum (Clostridium pasteurianum; 2%): 73% |
| [H]/N=C(/N)N[C@H]1[C@H](O)[C@@H](O)[C@H](O[C@@H]2O[C@@H](C)[C@](O)(C=O)[C@H]2O[C@@H]2O[C@@H](CO)[C@H](O)[C@@H](O)[C@@H]2NC)[C@@H](N/C(N)=N\[H])[C@@H]1O [Streptomycin] | 80% | 100% | – | – |
| CN(C)C1C(=O)C(C(N)=O)=C(O)C2(O)C(=O)C3=C(O)c4c(O)cccc4C(C)(O)C3CC12 (stereo not shown) [Tetracycline] | 100% | 100% | – | – |
